Converted amounts (≈) assume the structure as drawn. Where two headings read alike, the source gives them in different places. Bridge positions count the residues as written; N and C are the ends. Peptide text beside a SMILES is read from it.
Assays:
[1] = test system: S. aureus CVCC 546; test: Thermal stability, MIC after treatment; format: physicochemical, Staphylococcus aureus
[2] = test system: S. aureus CVCC 546; test: SYTO9/PI membrane integrity assay; format: cell-based, Staphylococcus aureus; conditions: 2 × MIC, 37 °C, 1 h; 1 × 10^9 CFU/mL; fluorescence microscopy
Text: To explore the disruption of bacterial cell membranes by the AP138L-arg26, a SYTO9/PI kit was used to detect the integrity of cell membranes (L7007 LIVE/DEAD^R BacLight™ Bacerial Viability Kits). The unique feature of this kit is that SYTO9 alone can pass through integral cell membranes, while PI can only penetrate damaged cell membranes. […] Finally, the results were observed using fluorescence microscopy.

[3] = test system: S. aureus CVCC 546; test: Growth curve of S. aureus; format: cell-based, Staphylococcus aureus; conditions: AP138L-arg26 8 µg/mL (2 × MIC), ceftiofur sodium 0.25 µg/mL (1/8 MIC), alone or combined; 1 × 10^5 CFU/mL
Description: Samples were taken during the logarithmic growth of S. aureus and diluted to 1 × 10^5 CFU/mL (Delpech et al. [2019]). Different concentrations of AP138L-arg26, ceftiofur sodium, or a combination of them with an equal volume of bacteria were added to a 96-well microplate. The growth curves were recorded using a fully automatic growth curve recording instrument.

[4] = test system: S. aureus CVCC 546; test: Artificial gastric juice stability, MIC after treatment; format: in vitro ADME, Staphylococcus aureus
[5] = test system: intracellular S. aureus CVCC 546 in mouse macrophages RAW264.7 and bovine endometrial epithelial cells BNCC359233; test: Intracellular antibacterial activity; format: cell-based, Staphylococcus aureus; conditions: 5 × MIC; n = 3
Text: The method of intracellular bactericidal effect was described previously (Wang et al. [2018]). Only the number of cells and bacteria changed from 2.5 × 10^5 to 2 × 10^5 cells/mL.

[6] = test system: S. aureus ATCC 43300; test: Post-antibiotic effect (PAE) assay; format: cell-based, Staphylococcus aureus
Text: The method of PAE of AP138L-arg26 against MRSA ATCC 43300 or S. aureus CVCC 546 was described previously (Wang et al. [2018]). The formula is PAE = T − C (T is the time required for the number of colonies in the sample treatment group to increase by tenfold, and C is the time required for the untreated group).

[7] = test system: S. aureus CVCC 546; test: Intracellular ATP determination; format: cell-based, Staphylococcus aureus
Text: As ATP is the most direct source of energy for living organisms, the effect of antimicrobial peptides on ATP was explored with an ATP assay kit (Beyotime, Shanghai, China). […] The luminescence was detected using an Infinite M200 Microplate reader (Tecan, Luminescence signals).

[8] = test system: S. aureus CVCC 546; conditions: for FIC: FIC = MICc/MICa
Description: The synergistic effects of AP138L-arg26 with different antibiotics were evaluated using a checkerboard assay. The synergistic effect was calculated using the FICI as follows: FICI = FIC of AP138L-arg26 + FIC of antibiotic; FIC = MICc/MICa, where MICc is the MIC of the peptide and antibiotic in combination, and MICa is the MIC of the peptide/antibiotic alone (Blier et al. [2010]). Three parallel experiments were performed for each group. The efficacy of combination therapy was defined as FICI ≤ 0.5, 0.5 < FICI ≤ 1, 1 < FICI ≤ 4, and FICI > 4 indicating synergy, addition, no difference, and antagonism, respectively.

[9] = test system: S. aureus CVCC 546; test: Salt stability, MIC after treatment; format: physicochemical, Staphylococcus aureus; conditions: then MIC assay
[10] = test system: S. aureus CVCC 546; test: Artificial intestinal juice (trypsin) stability, MIC after treatment; format: in vitro ADME, Staphylococcus aureus; conditions: then MIC assay
[11] = test system: S. aureus CVCC 546; test: pH stability, MIC after treatment; format: physicochemical, Staphylococcus aureus
[12] = test system: ICR mice; test: Acute toxicity in mice; format: in vivo, mouse
Description: AP138L-arg26 was administrated by intraperitoneal injection (n = 4 per group, 10 mg/kg, body weight 25 g) every day for 1 week (Shi et al. [2022]). After 7 days, the mice were euthanized to collect anticoagulant whole-blood and tissues (liver, spleen, kidney, and lung), which were used for whole blood and biochemical detection, or tissue sections (hematoxylin-eosin (HE) staining), respectively.

[13] = test system: selected standard and clinical Gram-positive bacteria; test: MIC/MBC summary over the panel of strains; format: cell-based, S. aureus, S. epidermidis, S. dysgalactiae, S. agalactiae
Description: To determine the MIC values of AP138L-arg26, we used the broth microdilution technique as previously described (Andrews. [2001]; Wiegand et al. [2008]). In brief, AP138L-arg26 peptide were diluted from 1280 to 2.5 µg/mL and added to a 96-cells plate with 10 µL per well. The bacteria in the logarithmic stage were diluted to 10^5 CFU/mL with 90 µL per well. […] The MBC method was also based on the CLSI 2021 guidelines.

In the case of `CC[C@H](C)[C@@H]1NC(=O)[C@H](CO)NC(=O)[C@H](CCCCN)NC(=O)[C@@H]2CSSC[C@@H](C(=O)N[C@@H](Cc3ccc(O)cc3)C(=O)O)NC(=O)[C@H](CCCCN)NC(=O)[C@@H]3CSSC[C@H](NC(=O)[C@H](CCCNC(=N)N)NC(=O)[C@H](CC(C)C)NC(=O)[C@H](CC(=O)O)NC(=O)[C@H](CC(=O)O)NC(=O)[C@H](CCC(=O)O)NC(=O)[C@H](CO)NC(=O)[C@H](Cc4c[nH]c5ccccc45)NC(=O)[C@@H]4CCCN4C(=O)CNC(=O)[C@H](CC(N)=O)NC(=O)[C@@H](NC(=O)CNC(=O)[C@H](Cc4ccccc4)NC(=O)CN)CSSC[C@H](NC(=O)[C@H](Cc4ccc(O)cc4)NC(=O)CNC(=O)CNC(=O)[C@H](CCCNC(=N)N)NC(=O)[C@H](Cc4ccc(O)cc4)NC(=O)CNC(=O)[C@H](CCCCN)NC1=O)C(=O)N[C@@H](C)C(=O)N[C@@H](CCCCN)C(=O)NCC(=O)NCC(=O)N[C@@H](Cc1ccccc1)C(=O)N[C@@H](C(C)C)C(=O)N3)C(=O)N[C@@H](Cc1c[nH]cn1)C(=O)N[C@@H](CCCNC(=N)N)C(=O)N[C@@H](Cc1c[nH]cn1)C(=O)N2` [AP138L-arg26] (H-GFGCNGPWSEDDLRCHRHCKSIKGYRGGYCAKGGFVCKCY-OH; disulfide 4-30, 15-37, 19-39; N-terminus and C-terminus assumed), the “MIC, Heat (20 °C)” value ([1]; peptide incubated at 20 °C for 1 h, then MIC assay) is reported as 8 µg/mL (≈ 1.8 µM), the “MIC, Heat (40 °C)” value ([1]; peptide incubated at 40 °C for 1 h, then MIC assay) is reported as 8 µg/mL (≈ 1.8 µM) and the “MIC, Heat (60 °C)” value ([1]; peptide incubated at 60 °C for 1 h, then MIC assay) is reported as 8 µg/mL (≈ 1.8 µM). For the same compound, the “MIC, Heat (80 °C)” value ([1]; peptide incubated at 80 °C for 1 h, then MIC assay) was 8 µg/mL (≈ 1.8 µM), the “MIC, Heat (100 °C)” value ([1]; peptide incubated at 100 °C for 1 h, then MIC assay) was over 64 µg/mL and the “MIC, Control (without treatment)” value ([1]; peptide without treatment, reference value of the stability tests) was 8 µg/mL (≈ 1.8 µM). For the same compound, the “cells stained red by PI” value [2] was “more than 50%”, the “effect on the growth of S. aureus CVCC 546” value [3] was “little effect on the growth” and the “antimicrobial activity after gastric juice” value ([4]; artificial gastric juice, MIC assay) was “unaffected”. For the same compound, the “MIC, Gastric juice (0.25 h)” value ([4]; peptide in artificial gastric juice for 0.25 h, then MIC assay) was 4 µg/mL (≈ 0.898 µM), the “MIC, Gastric juice (0.5 h)” value ([4]; peptide in artificial gastric juice for 0.5 h, then MIC assay) was 4 µg/mL (≈ 0.898 µM) and the “MIC, Gastric juice (1 h)” value ([4]; peptide in artificial gastric juice for 1 h, then MIC assay) was 4 µg/mL (≈ 0.898 µM). The “MIC, Gastric juice (2 h)” value ([4]; peptide in artificial gastric juice for 2 h, then MIC assay) was 8 µg/mL (≈ 1.8 µM), the intracellular bacteria killed [5] was “more than 70%” and the PAE ([6]; 1 × MIC, PAE = T − C) was 0.9 h. It also gave a PAE ([6]; 2 × MIC, PAE = T − C) of 1.25 h, a PAE ([6]; 4 × MIC, PAE = T − C) of 1.91 h and a PAE ([6]; as given in the abstract, concentration not given) of 1.91 h. For the same compound, the “intracellular ATP, times higher than the untreated group” value (“intracellular ATP” below) ([7]; 1 × MIC) was 7.6 times, the “intracellular ATP” value ([7]; 2 × MIC) was 8.2 times and the “intracellular ATP” value ([7]; 4 × MIC (maximum)) was 8.5 times. For the same compound, the FIC ([8]; combination AP138L-arg26-Streptomycin sulfate) was 0.5, the FIC ([8]; combination AP138L-arg26-ampicillin) was 1 and the FIC ([8]; combination AP138L-arg26-ceftiofur sodium) was 0.0625. The MICa ([8]; MIC of peptide/antibiotic alone, three parallel experiments) was 4 µg/mL, the MICc ([8]; in combination AP138L-arg26-Streptomycin sulfate) was 2 µg/mL and the MICc ([8]; in combination AP138L-arg26-ampicillin) was 4 µg/mL. The MICc ([8]; in combination AP138L-arg26-ceftiofur sodium) was 0.25 µg/mL, the “MIC, CaCl2 (2.5 mM)” value ([9]; peptide incubated with 2.5 mM CaCl2 for 1 h at 37 °C) was 8 µg/mL and the “MIC, KCl (2.5 mM)” value ([9]; peptide incubated with 2.5 mM KCl for 1 h at 37 °C) was 8 µg/mL. For the same compound, the “MIC, MgCl2 (2.5 mM)” value ([9]; peptide incubated with 2.5 mM MgCl2 for 1 h at 37 °C) was 16 µg/mL, the “MIC, CaCl2 (5 mM)” value ([9]; peptide incubated with 5 mM CaCl2 for 1 h at 37 °C) was 16 µg/mL and the “MIC, KCl (5 mM)” value ([9]; peptide incubated with 5 mM KCl for 1 h at 37 °C) was 8 µg/mL. The “MIC, MgCl2 (5 mM)” value ([9]; peptide incubated with 5 mM MgCl2 for 1 h at 37 °C) was 16 µg/mL, the “MIC, NaCl (50 mM)” value ([9]; peptide incubated with 50 mM NaCl for 1 h at 37 °C) was 8 µg/mL and the “MIC, NaCl (100 mM)” value ([9]; peptide incubated with 100 mM NaCl for 1 h at 37 °C) was 8 µg/mL. The “MIC, NaCl (150 mM)” value ([9]; peptide incubated with 150 mM NaCl for 1 h at 37 °C) was 8 µg/mL, the “MIC, NaCl (200 mM)” value ([9]; peptide incubated with 200 mM NaCl for 1 h at 37 °C) was 16 µg/mL and the “MIC, NaCl (300 mM)” value ([9]; peptide incubated with 300 mM NaCl for 1 h at 37 °C) was 16 µg/mL. The “MIC, CaCl2 ([…])” value ([9]; peptide incubated with […] CaCl2 for 1 h at 37 °C) was 8 µg/mL, the “MIC, KCl ([…])” value ([9]; peptide incubated with […] KCl for 1 h at 37 °C) was 8 µg/mL and the “MIC, MgCl2 ([…])” value ([9]; peptide incubated with […] MgCl2 for 1 h at 37 °C) was 8 µg/mL. The “MIC, Intestinal juice (0.25 h)” value ([10]; peptide in artificial intestinal juice for 0.25 h) was over 64 µg/mL, the “MIC, Intestinal juice (0.5 h)” value ([10]; peptide in artificial intestinal juice for 0.5 h) was over 64 µg/mL and the “MIC, Intestinal juice (1 h)” value ([10]; peptide in artificial intestinal juice for 1 h) was over 64 µg/mL. For the same compound, the “MIC, Intestinal juice (2 h)” value ([10]; peptide in artificial intestinal juice for 2 h) was over 64 µg/mL, the “antimicrobial activity after different pH values (2–10)” value ([11]; pH 2–10, 1 h, MIC assay) was “unaffected” and the “MIC, pH 2” value ([11]; peptide incubated at pH 2 for 1 h at 37 °C, then MIC assay) was 8 µg/mL. The “MIC, pH 4” value ([11]; peptide incubated at pH 4 for 1 h at 37 °C, then MIC assay) was 16 µg/mL, the “MIC, pH 6” value ([11]; peptide incubated at pH 6 for 1 h at 37 °C, then MIC assay) was 16 µg/mL and the “MIC, pH 8” value ([11]; peptide incubated at pH 8 for 1 h at 37 °C, then MIC assay) was 8 µg/mL. The “MIC, pH 10” value ([11]; peptide incubated at pH 10 for 1 h at 37 °C, then MIC assay) was 16 µg/mL, the “histology (HE) of heart, kidney, spleen, lung and liver” value ([12]; 10 mg/kg i.p. daily for a week) was “no hyperemia, bleeding, hyperplasia, or other lesions” and the “whole blood detection indexes and biochemical indexes compared with the control group” value ([12]; 10 mg/kg i.p. daily for a week) was “no significant differences”. The “difference in biochemical index versus control” value ([12]; 10 mg/kg i.p. for 1 week) was under 4%, the “difference in whole blood detection indexes versus control” value ([12]; 10 mg/kg i.p. for 1 week) was under 4.5% and the “MIC against Streptococcus” value ([13]; Streptococcus strains) was 4 µg/mL (≈ 0.898 µM). For the same compound, the “MBC relative to MIC” value ([13]; over the strains of Table 2) was “around fourfold higher than MICs”, the “MIC against S. aureus” value ([13]; range over S. aureus strains) was 2 to 16 µg/mL and the “MIC against selected standard and clinical Gram-positive bacteria” value ([13]; range over all strains of Table 2) was 2 to 16 µg/mL. The “MIC against selected standard and clinical Gram-positive bacteria” value ([13]; range over all strains, converted from µg/mL) was 0.45 to 3.6 µM.
